PubChem BioAssay (NCI)
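Values below derive from 48-hour exposures of cells grown in 96-well plates, with endpoints linearly interpolated between the two concentrations bracketing the appropriate inhibition level. Abbreviation: GI50, concentration required for 50% inhibition of growth. TGI marks complete inhibition of growth.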

Tests used:
Test in all cases: NCI-60 cell line screen, 48 h
786-0 renal = test system: 786-0 renal
BT-549 breast = test system: BT-549 breast
HCC-2998 colon = test system: HCC-2998 colon
HOP-62 NSCLC = test system: HOP-62 NSCLC
MDA-MB-231 breast = test system: MDA-MB-231 breast
MDA-MB-435 = test system: MDA-MB-435
NCI-H460 lung = test system: NCI-H460 lung
NCI/ADR-RES ovarian = test system: NCI/ADR-RES ovarian
T-47D breast = test system: T-47D breast
HS 578T breast = test system: HS 578T breast

Row | Compound | GI50 (786-0 renal) | TGI (786-0 renal) | GI50 (BT-549 breast) | TGI (BT-549 breast) | GI50 (HCC-2998 colon) | TGI (HCC-2998 colon) | GI50 (HOP-62 NSCLC) | TGI (HOP-62 NSCLC) | GI50 (MDA-MB-231 breast) | TGI (MDA-MB-231 breast) | GI50 (MDA-MB-435) | TGI (MDA-MB-435) | GI50 (NCI-H460 lung) | TGI (NCI-H460 lung) | GI50 (NCI/ADR-RES ovarian) | TGI (NCI/ADR-RES ovarian) | GI50 (T-47D breast) | TGI (T-47D breast) | TGI (HS 578T breast) | GI50 (HS 578T breast)
1 | CCCCCCCCCN=C(N)c1ccc(N2CCN(c3ccc(C(N)=NCCCCCCCCC)cc3)CC2)cc1 | 3.4 µM | > 50 µM | 1.13 µM | 2.71 µM | 1.82 µM | 6.14 µM | 2.72 µM | > 50 µM | 1.41 µM | 5.59 µM | 1.74 µM | 5.35 µM | 1.61 µM | 5.13 µM | 3.56 µM | > 50 µM | 2.44 µM | 11.8 µM |  | 
2 | CC(=O)OC(C(=O)[O][Ge]([CH3])([CH3])[CH3])c1ccccc1 (configuration not stated) | > 100 µM | > 100 µM |  |  | > 100 µM | > 100 µM | > 100 µM | > 100 µM |  |  |  |  | > 100 µM | > 100 µM |  |  |  |  |  | 
3 | CCCCCCCCCCCCC(O)C1CCC(C(O)CCCCC(O)CCCCCC2CC(CC(C)=O)C(=O)O2)O1 (configuration not stated) | 3.91 µM | 19.7 µM |  | 5.6 µM |  | 16.3 µM | 2.74 µM | 19.1 µM |  | 7.38 µM |  |  |  | > 43.8 µM |  | 2.3 µM |  |  | 3.8 µM | 
4 | O=C(O)c1ccc(CSc2nc3ccccc3[nH]2)cc1 | > 100 µM | > 100 µM |  |  | > 100 µM | > 100 µM | > 100 µM | > 100 µM | > 100 µM | > 100 µM | > 100 µM | > 100 µM | > 100 µM | > 100 µM | > 100 µM | > 100 µM |  |  | > 100 µM | > 100 µM
5 | CC(=O)[O-].CC(=O)[O-].O=C([CH-]C(=O)c1ccccc1)c1ccccc1.[Nd+3].[OH3+] | 19.4 µM | 63.9 µM |  |  | 25 µM | > 100 µM | 14.7 µM | 73.6 µM |  |  |  |  | 16.7 µM | > 100 µM |  |  |  |  |  | 
6 | CC1(C)CC[C@]23CC[C@]4(C)[C@H](CC[C@@H]5[C@@]6(C)CCCNC(C)(C)[C@@H]6CC[C@]54C)[C@H]2[C@H]1OC3 | 1.66 µM | 3.21 µM |  |  | 1.54 µM | 2.97 µM | 1.91 µM | 3.75 µM | 1.66 µM | 3.2 µM | 1.65 µM | 3.02 µM | 0.646 µM | 2.2 µM |  |  | 1.71 µM | 3.69 µM | 4.69 µM | 1.96 µM
7 | CC(=O)OCc1nnn2c1C(OC(C)=O)CC2 (configuration not stated) |  | > 100 µM |  |  |  | > 100 µM |  |  |  |  |  |  |  | > 100 µM |  |  |  |  |  | 
8 | CC(=O)OC(COc1ccc2c(c1)[n+]([O-])nc(N)[n+]2[O-])CN1CCCCC1 (configuration not stated) |  | 36.6 µM |  | > 100 µM |  | 22.5 µM |  |  |  | 28 µM |  | > 100 µM |  | 21.8 µM |  | > 100 µM |  |  |  | 
9 | CCN1C(=O)/C(=c2\sc3n(c2=O)C2C(NN=3)N(CC)C(=O)N2CC)c2ccccc21 (configuration not stated) | 0.663 µM | 16.9 µM | 1.37 µM | 14.4 µM | 0.859 µM | > 76.8 µM | 0.786 µM | > 42.6 µM | 1.44 µM | 19.3 µM | 0.199 µM | 0.449 µM | 0.402 µM | > 100 µM | 0.411 µM | 13.8 µM |  |  | 31.6 µM | 0.341 µM
10 | CCOC(=O)C(C(=O)OCC)=C1C=C(c2ccccc2)c2ccccc21 |  | > 100 µM |  |  |  | > 100 µM |  | > 100 µM |  |  |  |  |  | > 100 µM |  |  |  |  |  | 
11 | CCOC(=O)CCc1c(C)c2c(OC)cc(OC)cc2oc1=O |  | > 100 µM |  |  |  | > 100 µM |  | > 100 µM |  |  |  |  |  | > 100 µM |  |  |  |  |  | 
12 | COC(=O)C1c2cc3c(c(O)c2CCC1(C)O)C(=O)c1c(O)cc2c(c1C3=O)OC1OC2(C)C(O)C(N(C)C)C1O (configuration not stated) |  | 2.63 µM |  |  |  |  |  | 1.58 µM |  | 1.69 µM |  | 2.17 µM |  | 2.11 µM |  | 3.54 µM |  | 1.61 µM | 3.77 µM | 
13 | N#CC1=C(N)N=C(N2CCOCC2)C(C#N)C12Nc1ccccc1S2 (configuration not stated) | 29.6 µM | 76.2 µM | 23.3 µM | 60.6 µM |  |  | 61.4 µM | > 100 µM | 26.7 µM | > 100 µM | 22.9 µM | 61.1 µM | 16.6 µM | 37.1 µM | 39.3 µM | 75.9 µM | 27.3 µM | 88.2 µM | 7.17 µM | 1.75 µM
14 | Cc1ccc(NC(=S)NNC(=S)Nc2ccc(C)cc2)cc1 | 51.3 µM | > 100 µM | > 100 µM | > 100 µM | 15.5 µM | > 100 µM |  |  | 65.4 µM | > 100 µM | 2.5 µM | > 100 µM | 3.89 µM | > 100 µM | 2.55 µM | 8.52 µM | 14.4 µM | > 100 µM | > 100 µM | 4.6 µM
15 | CSC1=CC(=O)c2ccccc2C1=O | 4.06 µM | 14.1 µM | 11.6 µM | 23.8 µM | 15.3 µM | 29.9 µM | 16.7 µM | 31.8 µM | 1.29 µM | 3.02 µM | 3.02 µM | 9.73 µM | 31.3 µM | > 100 µM | 2.81 µM | 11.7 µM | 0.41 µM | 2.1 µM |  | 
16 | CCCCCOC(=O)Nc1nc(=O)n(C2OC(C)C(O)C2O)cc1F (configuration not stated) | > 10000 µM | > 10000 µM |  |  | 271 µM | > 10000 µM | > 10000 µM | > 10000 µM |  |  | > 10000 µM | > 10000 µM |  |  | > 10000 µM | > 10000 µM | > 10000 µM | > 10000 µM |  | 
17 | O=C(CCN1CCCCC1)c1csc2ccccc12 |  | > 100 µM |  | > 100 µM |  |  |  | > 100 µM |  | > 100 µM |  | > 100 µM |  | > 100 µM |  | > 100 µM |  | > 100 µM | > 100 µM | 
18 | COC(=O)C1C(C(=O)O)C2(c3ccccc3)C(=O)C1(c1ccccc1)C(c1ccc(OC)cc1)=C2c1ccc(OC)cc1 (configuration not stated) | 18.6 µM | 40.4 µM | 15.8 µM | 33.6 µM | 13.9 µM | 27.8 µM | 20.4 µM | 47.5 µM | 24 µM | 54.5 µM | 28.8 µM | 60.7 µM | 13.7 µM | 31 µM | 20.6 µM | 43.6 µM |  |  | 72.3 µM | 22.1 µM
19 | CCN(N=O)C1C2(CCCC2)NC(=O)C12CCCC2 (configuration not stated) |  | > 100 µM |  |  |  | > 100 µM |  | > 100 µM |  |  |  |  |  | > 100 µM |  |  |  |  |  | 
